According to paper PMC8913315, “Comparison of glycoside hydrolase family 3 β-xylosidases from basidiomycetes and ascomycetes reveals evolutionarily distinct xylan degradation systems” (The Journal of Biological Chemistry, 2022):

Assays:
TrXyl3A = biological target: T1, TrXyl3A (Trichoderma reesei, UniProt Q92458); test: X-ray crystal structure, […] Å; type: binding; conditions: crystal soaked 1 h with 14 mM 4-thioxylobiose, pH 7.0; subsites -1 and +1
T1 construct: gene bxl1; kinetics: synthetic gene codon-optimized, pPICZalpha A, secreted from Pichia pastoris KM71H; crystals: protein gift from DuPont Industrial Bioscience; 777 residues; dimer in asymmetric unit

PcBxl3 = biological target: T2, PcBxl3 (Phanerodontia chrysosporium, UniProt Z9K6S9QQP9); test: X-ray crystal structure, […] Å; type: binding; conditions: crystal soaked briefly in 100 mM xylobiose, 40% PEG 400; Endo H deglycosylated; subsite -1
T2 construct: cDNA from strain K-3, pPICZalpha A, secreted from Pichia pastoris KM71H; 743 residues; glycosylated, Endo H treated for crystals; monomer in asymmetric unit
T2 sequence (Z9K6S9QQP9 1-743): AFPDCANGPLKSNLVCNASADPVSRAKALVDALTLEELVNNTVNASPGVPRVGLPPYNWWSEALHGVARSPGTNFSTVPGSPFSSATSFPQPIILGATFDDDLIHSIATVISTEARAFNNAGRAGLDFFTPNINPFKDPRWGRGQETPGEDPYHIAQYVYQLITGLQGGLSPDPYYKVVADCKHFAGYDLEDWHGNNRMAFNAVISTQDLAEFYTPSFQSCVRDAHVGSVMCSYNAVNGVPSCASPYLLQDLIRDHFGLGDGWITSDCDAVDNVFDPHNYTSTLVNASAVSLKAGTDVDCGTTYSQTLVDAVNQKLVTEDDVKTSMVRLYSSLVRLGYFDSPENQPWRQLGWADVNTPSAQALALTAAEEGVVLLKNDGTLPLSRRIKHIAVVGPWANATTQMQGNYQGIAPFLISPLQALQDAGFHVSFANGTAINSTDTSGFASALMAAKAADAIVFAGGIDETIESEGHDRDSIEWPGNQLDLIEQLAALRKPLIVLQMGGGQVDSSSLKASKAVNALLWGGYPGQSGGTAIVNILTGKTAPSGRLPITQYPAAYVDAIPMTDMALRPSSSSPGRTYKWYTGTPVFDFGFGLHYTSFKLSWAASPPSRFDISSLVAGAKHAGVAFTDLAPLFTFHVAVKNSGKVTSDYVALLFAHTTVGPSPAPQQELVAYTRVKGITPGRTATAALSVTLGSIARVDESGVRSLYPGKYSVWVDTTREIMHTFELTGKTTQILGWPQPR

T1 sequence (Q92458 entry or part of it): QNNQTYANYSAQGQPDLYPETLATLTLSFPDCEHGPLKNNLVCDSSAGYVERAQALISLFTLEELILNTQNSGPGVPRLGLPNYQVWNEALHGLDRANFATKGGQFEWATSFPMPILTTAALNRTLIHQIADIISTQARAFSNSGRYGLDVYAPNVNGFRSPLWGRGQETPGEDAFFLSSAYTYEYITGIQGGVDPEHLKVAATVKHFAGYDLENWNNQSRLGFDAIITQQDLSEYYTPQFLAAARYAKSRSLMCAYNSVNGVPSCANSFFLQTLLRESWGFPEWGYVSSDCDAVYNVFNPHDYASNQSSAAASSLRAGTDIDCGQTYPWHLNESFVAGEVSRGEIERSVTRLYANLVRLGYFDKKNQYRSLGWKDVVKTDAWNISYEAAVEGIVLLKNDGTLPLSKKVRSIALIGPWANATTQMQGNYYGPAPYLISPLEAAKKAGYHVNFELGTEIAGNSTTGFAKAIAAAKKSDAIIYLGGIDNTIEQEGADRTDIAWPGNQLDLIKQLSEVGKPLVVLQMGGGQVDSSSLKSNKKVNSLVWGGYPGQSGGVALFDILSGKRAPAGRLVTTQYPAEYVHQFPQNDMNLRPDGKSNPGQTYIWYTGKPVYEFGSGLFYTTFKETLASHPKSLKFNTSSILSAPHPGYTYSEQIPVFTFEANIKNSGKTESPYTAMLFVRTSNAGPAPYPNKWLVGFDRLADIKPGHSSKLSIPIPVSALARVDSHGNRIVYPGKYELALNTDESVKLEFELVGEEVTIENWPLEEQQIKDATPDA

Row | Compound | X-ray crystal structure, 2.1 Å (TrXyl3A) | X-ray crystal structure, 3.08 Å (PcBxl3)
1 | OC1OC[C@@H](S[C@@H]2OC[C@@H](O)[C@H](O)[C@H]2O)[C@H](O)[C@H]1O (some centres unmarked) [4-thioxylobiose] | The crystal structure of TrXyl3A bound with thioxylobiose was determined by molecular replacement | 
2 | OC1OC[C@@H](O)[C@H](O)[C@H]1O (some centres unmarked) [X, xylose] |  | The structure of PcBxl3 with xylose bound in the catalytic center was also determined
